In one test the test system is HeLa cells. As to the kind of experiment: Proliferation assay (crystal violet). It is filed as cell-based. The conditions noted are these: Homo sapiens, 96 h, 4 days incubation, read-out: Inhibition of proliferation HeLa IC50. The method, then: Cultivated tumor cells (cells were ordered from ATCC, except HeLa-MaTu and HeLa-MaTu-ADR, which were ordered from EPO-GmbH, Berlin) were plated at a density of 1000 to 5000 cells/well, depending on the growth rate of the respective cell line, in a 96-well multititer plate in 200 μL of their respective growth medium supplemented 10% fetal calf serum. After 24 hours, the cells of one plate (zero-point plate) were stained with crystal violet (see below), while the medium of the other plates was replaced by fresh culture medium (200 μl), to which the test substances were added in various concentrations (0 μM, as well as in the range of 0.001-10 μM; the final concentration of the solvent dimethyl sulfoxide was 0.5%). The cells were incubated for 4 days in the presence of test substances. Cell proliferation was determined by staining the cells with crystal violet: the cells were fixed by adding 20 μl/measuring point of an 11% glutaric aldehyde solution for 15 minutes at room temperature. After three washing cycles of the fixed cells with water, the plates were dried at room temperature. The cells were stained by adding 100 μl/measuring point of a 0.1% crystal violet solution (pH 3.0). After three washing cycles of the stained cells with water, the plates were dried at room temperature. The dye was dissolved by adding 100 μl/measuring point of a 10% acetic acid solution. Absorption was determined by photometry at a wavelength of 595 nm. The change of cell number, in percent, was calculated by normalization of the measured values to the absorption values of the zero-point plate (=0%) and the absorption of the untreated (0 μm) cells (=100%). The IC50 values were determined by means of a 4 parameter fit.

Another test addresses T1, human Bub1 (Homo sapiens, UniProt O43683).
T1 construct: catalytic domain of human Bub1 (amino acids 704-1085); His6 (N); made in house; host or cells: insect cells (Hi5)
In words: Bub1 kinase assay (TR-FRET). The conditions noted are these: 10 μM ATP. It is filed as biochemical. The source says: Bub1-inhibitory activity of compounds of the present invention was quantified employing the Bub1 TR-FRET assay as described in the following paragraphs.
N-terminally His6-tagged recombinant catalytic domain of human Bub1 (amino acids 704-1085), expressed in insect cells (Hi5) and purified by Ni-NTA affinity chromatography and subsequent size exclusion chromatography, was used as enzyme. As substrate for the kinase reaction the biotinylated peptide biotin-Ahx-VLLPKKSFAEPG (C-terminus in amid form) was used which can be purchased e.g. form the company Biosyntan (Berlin, Germany).
For the assay 50 nl of a 100 fold concentrated solution of the test compound in DMSO was pipetted into a black low volume 384 well microtiter plate (Greiner Bio-One, Frickenhausen, Germany), 2 μl of a solution of Bub1 in aqueous assay buffer [50 mM Tris/HCl pH 7.5, 10 mM magnesium chloride (MgCl2), 200 mM potassium chloride (KCl), 1.0 mM dithiothreitol (DTT), 0.1 mM sodium ortho-vanadate, 1% (v/v) glycerol, 0.01% (w/v) bovine serum albumine (BSA), 0.005% (v/v) Trition X-100 (Sigma), 1× Complete EDTA-free protease inhibitor mixture (Roche)] were added and the mixture was incubated for 15 min at 22° C. to allow pre-binding of the test compounds to the enzyme before the start of the kinase reaction. Then the kinase reaction was started by the addition of 3 μl of a solution of adenosine-tri-phosphate (ATP, 16.7 μM=>final conc. in the 5 μl assay volume is 10 μM) and substrate (1.67 μM=>final conc. in the 5 μl assay volume is 1 μM) in assay buffer and the resulting mixture was incubated for a reaction time of 60 min at 22° C. The concentration of Bub1 was adjusted depending of the activity of the enzyme lot and was chosen appropriate to have the assay in the linear range, typical concentrations were in the range of 200 ng/ml. The reaction was stopped by the addition of 5 μl of a solution of TR-FRET detection reagents (0.2 μM streptavidine-XL665 [Cisbio Bioassays, Codolet, France] and 1 nM anti-phosho-Serine antibody [Merck Millipore, cat. #35-001] and 0.4 nM LANCE EU-W1024 labeled anti-mouse IgG antibody [Perkin-Elmer, product no. AD0077, as an alternative a Terbium-cryptate-labeled anti-mouse IgG antibody from Cisbio Bioassays can be used]) in an aqueous EDTA-solution (50 mM EDTA, 0.2% (w/v) bovine serum albumin in 100 mM HEPES pH 7.5).
The resulting mixture was incubated 1 h at 22° C. to allow the formation of complex between the phosphorylated biotinylated peptide and the detection reagents. Subsequently the amount of phosphorylated substrate was evaluated by measurement of the resonance energy transfer from the Eu-chelate to the streptavidine-XL. Therefore, the fluorescence emissions at 620 nm and 665 nm after excitation at 350 nm was measured in a TR-FRET reader, e.g. a Rubystar or Pherastar (both from BMG Labtechnologies, Offenburg, Germany) or a Viewlux (Perkin-Elmer). The ratio of the emissions at 665 nm and at […] was taken as the measure for the amount of phosphorylated substrate. The data were normalised (enzyme reaction without inhibitor=0% inhibition, all other assay components but no enzyme=100% inhibition).
In general terms: Time-resolved FRET reads energy transfer from a long-lived donor to a nearby acceptor.

For seven molecules, IC50 results are on record in patent publication US20170217946A1, “AMINO-SUBSTITUTED ISOXAZOLES” (Bayer Pharma Aktiengesellschaft, priority 2014, published 2017).

pIC50: −log10 of the molar value. Some results are limits rather than exact numbers.

T1 sequence (O43683 704-1085): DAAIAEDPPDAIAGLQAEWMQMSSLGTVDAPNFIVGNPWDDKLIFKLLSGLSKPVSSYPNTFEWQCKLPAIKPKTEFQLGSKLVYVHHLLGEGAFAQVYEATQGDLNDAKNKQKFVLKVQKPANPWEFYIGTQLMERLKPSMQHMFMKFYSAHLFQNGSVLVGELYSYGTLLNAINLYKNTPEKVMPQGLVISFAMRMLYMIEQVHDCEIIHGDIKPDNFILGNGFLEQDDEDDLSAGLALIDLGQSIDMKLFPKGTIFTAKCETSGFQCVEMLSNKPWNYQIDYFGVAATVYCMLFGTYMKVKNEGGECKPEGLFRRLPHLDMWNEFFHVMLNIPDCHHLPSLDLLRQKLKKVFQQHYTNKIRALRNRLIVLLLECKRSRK

Turning to `COc1ccc(NC(=O)c2c(C)noc2Nc2cnc(C(F)(F)F)cn2)cn1` [Example 2c, N-(6-methoxypyridin-3-yl)-3-methyl-5-{[5-(trifluoromethyl)pyrazin-2-yl]amino}-1,2-oxazole-4-carboxamide], the pIC50 with HeLa cells is 5.57; against human Bub1 it was less than 4.70.

`Cc1noc(Nc2cnc(C(F)(F)F)cn2)c1C(=O)Nc1ccc(OC[C@H]2CCN(CC(F)(F)F)C2)nc1` [Example 8a, 3-Methyl-N-(6-{[(3S)-1-(2,2,2-trifluoroethyl)pyrrolidin-3-yl]methoxy}pyridin-3-yl)-5-{[5-(trifluoromethyl)pyrazin-2-yl]amino}-1,2-oxazole-4-carboxamide]: the pIC50 in the test on HeLa cells was 5.72; on human Bub1, less than 4.70.

With `Cc1noc(Nc2cnc(C(F)(F)F)cn2)c1C(=O)Nc1ccc(OC[C@@H]2CCN(CCC(F)(F)F)C2)nc1` [Example 5a, 3-Methyl-5-{[5-(trifluoromethyl)pyrazin-2-yl]amino}-N-(6-{[(3R)-1-(3,3,3-trifluoro-propyl)pyrrolidin-3-yl]methoxy}pyridin-3-yl)-1,2-oxazole-4-carboxamide], the pIC50 in the test with HeLa cells is 5.48; at human Bub1, less than 4.70.

`Cc1noc(Nc2cnc(C(F)(F)F)cn2)c1C(=O)Nc1ccc(OC[C@H]2CCN(CC(F)F)C2)nc1` [Example 7a, N-(6-{[(3S)-1-(2,2-difluoroethyl)pyrrolidin-3-yl]methoxy}pyridin-3-yl)-3-methyl-5-{[5-(trifluoromethyl)pyrazin-2-yl]amino}-1,2-oxazole-4-carboxamide]: the pIC50 in the test on HeLa cells is 5.40; at human Bub1, less than 4.70.

Consider `Cc1noc(Nc2cnc(C(F)(F)F)cn2)c1C(=O)Nc1ccc(OC[C@@H]2CCN(CC(F)F)C2)nc1` [Example 3a, N-(6-{[(3R)-1-(2,2-difluoroethyl)pyrrolidin-3-yl]methoxy}pyridin-3-yl)-3-methyl-5-{[5-(trifluoromethyl)pyrazin-2-yl]amino}-1,2-oxazole-4-carboxamide], for which the pIC50 in the test with HeLa cells was 5.47; on human Bub1 it was less than 4.70.

On to `Cc1noc(Nc2cnc(C(F)(F)F)cn2)c1C(=O)Nc1ccc(OC[C@@H]2CCN(CC(F)(F)F)C2)nc1` [Example 4a, 3-Methyl-N-(6-{[(3R)-1-(2,2,2-trifluoroethyl)pyrrolidin-3-yl]methoxy}pyridin-3-yl)-5-{[5-(trifluoromethyl)pyrazin-2-yl]amino}-1,2-oxazole-4-carboxamide], for which the values for the pIC50 in the test on HeLa cells and on human Bub1 were 5.55 and less than 4.70, respectively.

For the molecule `Cc1noc(Nc2cnc(C(F)(F)F)cn2)c1C(=O)Nc1ccc(OC[C@H]2CCN(CCC(F)(F)F)C2)nc1` [Example 9a, 3-Methyl-5-{[5-(trifluoromethyl)pyrazin-2-yl]amino}-N-(6-{[(3S)-1-(3,3,3-trifluoro-propyl)pyrrolidin-3-yl]methoxy}pyridin-3-yl)-1,2-oxazole-4-carboxamide], the pIC50 in the test on HeLa cells was 5.51; against human Bub1, less than 4.70.
